Assays:
Plasmodium Berghei = assay: Peters' four day inhibition test in mice, erythrocytic stage of Plasmodium Berghei; format: in vivo; conditions: once a day D0-D3, Hybrid Kunming strain mice, read-out: SD50 (the source's name)
Description: Effect on Erythrocytic Stage of Plasmodium Berghei 1. "Four day inhibition test" in mice To determinate the SD50 with Peters' "four day inhibition test". Hybrid Kunming strain mice, body weight 18-22 g, were inculated with 1×10^7 parasites infected RBC intraperitoneally on D0. Dihydroqinghaosu-methylcarbamate, dihydroqinghaosu-butylcarbamate, dihydroqinghaosu-benzenecarbamate and dihydroqinghaosu-4-nitrobenzenecarbamate with different concentration were given once a day from D0 -D3. Blood smears from mouse's tail were made on D4, stained with Gimsa reagent and examined under microscope to count the infected and uninfected erthrocyte to get infected rate. Inhibitory rates of different dosages were calculated by following formula. The SD50 was calculated by the simplified probit analysis: [formula]

U937 HIV-1 [1] = assay: Inhibition effect on HIV-1 infected U937 cells, activity of reverse transcriptase; format: cell-based; conditions: 50 μg/ml, control 24502
Description: (§1) Furthermore, a part of the compounds according to the present invention were used to test their inhibition effect on U937 cell line (macrophage cell line)according to the methods in Experiment 1.

HIV-1 (MT4) = assay: Anti-HIV effect on MT4 cells, virus antigen expression (immunoenzymatic method); format: cell-based
Description: The virus used was HIV-1 which had been obtained from Professor Montagnier of the Pastear Institute, France. The virus titer used in the experiment was 1×10^4 TCID50 /ml. The cell culture used was CEM cell line which was cultivated in the HIV laboratory of Institute of Virology, Chinese Academy of Preventive Medicine, for cultivation storage of HIV-1.
The compounds used in the experiment were qinghaosu, dihydroqinghaosu, Artesunate, Artemether, dihydroqinghaosu-methylcarbamate, dihydroqinghaosu-benzenecarbamate, qinghaosu-morpholinyl propylether maleate, dihydroqinghaosu-diethyl amino ethyl ether maleate, deoxyqinghaosu-morpholinyl ethyl ether maleate, qinghaosu-morpholinyl propanol ether maleate, qinghaosu-3,5-dimonpholinyl methyl-4-hydroxy benzyl ether maleate, dihydroqinghaosu-m-chlorobenzoate, qinghaosu-3-pyrrolidinylmethyl-4-hydroxybenzoate oxalate, and qinghaosu-3-morpholinylmethyl-4-hydroxybenzoate oxalate. […] The concentration of the original solution of these compounds were all 1 mg/ml.
(§2) a. Freshly cultured MT4 cells (5×10^5 /ml) were co-cultivated with the virus fluid (10^3 TCID50 /ml) in a CO2 incubator at 37° C. for 1-1.5 hours. RPMI 1640 complete medium (containing 10% Bovine serum and antibiotics, such as penicillin) was used to wash the unbound virus.
(§3) Complete medium was added to correct the concentration for use.
(§4) The experiment was carried out on the plates with 96 wells. 0.1 ml of the above-mentioned infected MT4 cell suspension was added into each well, and then 0.1 ml of various concentrations of the drugs were added. […] Each concentration of the drugs was added into two wells. Both the experiment group and the control group were incubated in a CO2 incubator at 37° C. The drug solution were changed 3 days later, and the following observations were carried out 6 days afterwards.
b. Observation on the growth situation of cells. Trypan blue dye was used to observe the quantity of live cells in each group.
(§5) c. Determination of the virus antigen expression. The immunoenzymatic method was used to examine the virus antigen expression. Cells from each group were separately smeared in two wells. They were fixed with cold acetone, HIV-positive serum was dropped into the wells. After incubated in a CO2 incubator at 37° C. for 30 minutes, they were washed with PBS for 3 times. Enzyme-labelled SPA was dropped into the wells. They were incubated in the same condition for 30 minutes, washed with PBS for 3 times, and then put in substrate solution to stain for 2-3 minutes, washed with distilled water, and observed under microscope. Normal cells were colorless, whereas virus-carrying cells appeared browrish red.
The mark used were as follows:
The experiment was repeated two to three times.
The concentration of the original fluid of these compounds were all 1 mg/ml. 0.1 ml was taken and added into 0.1 ml of virus-carrying cell suspension, thus the reaction concentrations were as follows: in the original fluid group, 0.1 mg/0.2 ml, i.e., 0.5 mg/ml; in 1×10^-1group, 0.05 mg/ml; in 1×10^-2 group, 0.005 mg/ml; in 1×10^-3 group, 0.0005 mg/ml, i.e., 0.5 μg/ml; and on the analogy of this.

U937 HIV-1 [2] = assay: Inhibition effect on HIV-1 infected U937 cells (macrophage cell line), HIV antigen test (IE); format: cell-based; conditions: U937 HIV-1; 50 μg/ml
Procedure: as §2, §3, §4, §5, §1

Acute toxicity in mice = format: in vivo; conditions: for LD50: mouse, in vivo, po
Procedure: Animals: Hybrid swiss strain mice (provided by Animal House of Institute of Chinese Mateia Media, China Academy of Traditional Chinese Medicine), 20-22 grams, less than 6 weeks age of both sexes fed in laboretory for 3-5 days observation and a random taking food and drinking.
Drugs: Dihydroqinghaosu-methylcarbamate and dihydroqinghaosu-benzenecarbamate.
Above two drugs in powder form were dissolved into peanut oil. The biggest dose were 2000 mg/kg and 2161 mg/kg respectively. The distances between two dose groups were 0.7 and 0.68 respectively, with 5 dose groups each drugs.
Method: The mice were given single dose of above compound respectively intragastrically, the acute intoxication manifestrations were observed the LD value (LD5, LD50 and LD95) and B value were determined by three days mortality.

[3] = Subacute toxicologic study; conditions: in vivo, read-out: basic safe dosage
[4] = F + M, single dose intragastrically
[5] = F, single dose intragastrically
[6] = M, single dose intragastrically

With `CNC(=O)OC1OC2OC3(C)CCC4C(C)CCC(C1C)C24OO3` (stereo not shown) [Dihydroqinghaosu-methylcarbamate, Dihydroqinghaosu-Methylcarbamate] the ED50 (Plasmodium Berghei) was 0.24 mg/kg, the “Activity of reverse transcription (CPM)” value (U937 HIV-1 [1]) was 4463 CPM and the “effect on HIV-1 (MT4), virus antigen expression” value (from here on “effect on HIV-1 (MT4)”) (HIV-1 (MT4); 1 × 10^-1 (50 μg/ml)) was “- (positive cells were not seen in the whole well)”. The “effect on HIV-1 (MT4)” value (HIV-1 (MT4); 1 × 10^-2 (5 μg/ml)) was “- (positive cells were not seen in the whole well)”, the “effect on HIV-1 (MT4)” value (HIV-1 (MT4); 1 × 10^-3 (0.5 μg/ml)) was “- (positive cells were not seen in the whole well)” and the “effect on HIV-1 (MT4)” value (HIV-1 (MT4); 1 × 10^-4 (0.05 μg/ml)) was “- (positive cells were not seen in the whole well)”. The “inhibition on HIV” value (HIV-1 (MT4); according to Table 1) was “distinct inhibition on HIV”, the “Antigen test (IE)” value (U937 HIV-1 [2]) was “- (positive cells were not seen in the whole well)” and the “Death distribution of mice, exp./death” value (Acute toxicity in mice; 462 mg/kg, female) was 5/0. For the same molecule, the “Death distribution of mice, exp./death” value (Acute toxicity in mice; 462 mg/kg, female + male) was 10/1, the “Death distribution of mice, exp./death” value (Acute toxicity in mice; 462 mg/kg, male) was 5/1 and the “Death distribution of mice, exp./death” value (Acute toxicity in mice; 680 mg/kg, female) was 5/2. For the same molecule, the “Death distribution of mice, exp./death” value (Acute toxicity in mice; 680 mg/kg, female + male) was 10/2, the “Death distribution of mice, exp./death” value (Acute toxicity in mice; 680 mg/kg, male) was 5/1 and the “Death distribution of mice, exp./death” value (Acute toxicity in mice; 1000 mg/kg, female) was 5/2. For the same molecule, the “Death distribution of mice, exp./death” value (Acute toxicity in mice; 1000 mg/kg, female + male) was 10/4, the “Death distribution of mice, exp./death” value (Acute toxicity in mice; 1000 mg/kg, male) was 5/2 and the “Death distribution of mice, exp./death” value (Acute toxicity in mice; 1470 mg/kg, female) was 5/2. For the same molecule, the “Death distribution of mice, exp./death” value (Acute toxicity in mice; 1470 mg/kg, female + male) was 10/5, the “Death distribution of mice, exp./death” value (Acute toxicity in mice; 1470 mg/kg, male) was 5/3 and the “Death distribution of mice, exp./death” value (Acute toxicity in mice; 2161 mg/kg, female) was 5/5. The “Death distribution of mice, exp./death” value (Acute toxicity in mice; 2161 mg/kg, female + male) was 10/10, the “Death distribution of mice, exp./death” value (Acute toxicity in mice; 2161 mg/kg, male) was 5/5 and the LD5 (Acute toxicity in mice; [4]) was 435.75 mg/kg. The LD95 (Acute toxicity in mice; [4]) was 2883.02 mg/kg, the “slope (B)” value (Acute toxicity in mice; [4]) was 4.01 and the LD5 (Acute toxicity in mice; [5]) was 543.17 mg/kg. For the same molecule, the LD95 (Acute toxicity in mice; [5]) was 2711.67 mg/kg, the “slope (B)” value (Acute toxicity in mice; [5]) was 4.711 and the LD5 (Acute toxicity in mice; [6]) was 360.92 mg/kg. For the same molecule, the LD95 (Acute toxicity in mice; [6]) was 2932.84 mg/kg, the “slope (B)” value (Acute toxicity in mice; [6]) was 3.620 and the LD50 (Acute toxicity in mice; [4]) was 1120 mg/kg. It also gave an LD50 (Acute toxicity in mice; [5]) of 1210 mg/kg, an LD50 (Acute toxicity in mice; P.O. (per os)) of 1120 mg/kg and an LD50 (Acute toxicity in mice; single dose intragastrically) of 1030 mg/kg. It also gave an NOAEL [3] of 30.2 mg/kg/day.
